Data reported in the NIST ThermoML archive (doi:10.1016/j.fluid.2017.12.010).
Numbers after ± are expanded uncertainties.

Settings: Liquid, Vibrating tube method

CCCCCCCCCC [decane]
Settings	mass density [kg/m3]
283.55 K, 5000 kPa	742 ± 3
283.56 K, 3000 kPa	740 ± 3
283.56 K, 20000 kPa	752 ± 3
283.56 K, 30000 kPa	758 ± 3
283.56 K, 40000 kPa	763 ± 3
283.56 K, 50000 kPa	769 ± 3
283.56 K, 60000 kPa	774 ± 3
283.56 K, 70000 kPa	779 ± 3
283.56 K, 80000 kPa	783 ± 3
283.56 K, 90000 kPa	788 ± 3
283.57 K, 1000 kPa	739 ± 3
283.57 K, 10000 kPa	745 ± 3
283.58 K, 100 kPa	738 ± 3
293.48 K, 100 kPa	731 ± 3
293.48 K, 1000 kPa	731 ± 3
293.49 K, 5000 kPa	734 ± 3
293.49 K, 10000 kPa	738 ± 3
293.49 K, 20000 kPa	745 ± 3
293.5 K, 30000 kPa	751 ± 3
293.5 K, 40000 kPa	757 ± 3
293.5 K, 50000 kPa	763 ± 3
293.5 K, 100000 kPa	787 ± 3
293.51 K, 60000 kPa	768 ± 3
293.51 K, 70000 kPa	773 ± 3
293.51 K, 80000 kPa	778 ± 3
293.51 K, 90000 kPa	783 ± 3
303.42 K, 100 kPa	723 ± 3
303.42 K, 1000 kPa	724 ± 3
303.42 K, 10000 kPa	731 ± 3
303.42 K, 30000 kPa	745 ± 3
303.42 K, 40000 kPa	751 ± 3
303.42 K, 70000 kPa	768 ± 3
303.42 K, 80010 kPa	773 ± 3
303.42 K, 90000 kPa	777 ± 3
303.43 K, 5000 kPa	727 ± 3
303.43 K, 20000 kPa	738 ± 3
303.43 K, 50000 kPa	757 ± 3
303.43 K, 60000 kPa	762 ± 3
303.43 K, 100000 kPa	782 ± 3
313.35 K, 100 kPa	716 ± 3
313.35 K, 1000 kPa	717 ± 3
313.35 K, 5000 kPa	721 ± 3
313.35 K, 40000 kPa	746 ± 3
313.36 K, 20000 kPa	732 ± 3
313.36 K, 50000 kPa	752 ± 3
313.36 K, 70000 kPa	763 ± 3
313.36 K, 80000 kPa	768 ± 3
313.36 K, 90000 kPa	773 ± 3
313.36 K, 100000 kPa	777 ± 3
313.37 K, 10000 kPa	725 ± 3
313.37 K, 30000 kPa	739 ± 3
313.37 K, 60000 kPa	757 ± 3
323.24 K, 100 kPa	708 ± 3
323.24 K, 1000 kPa	709 ± 3
323.24 K, 100000 kPa	771 ± 3
323.25 K, 5000 kPa	712 ± 3
323.25 K, 10000 kPa	717 ± 3
323.25 K, 20000 kPa	725 ± 3
323.25 K, 30000 kPa	732 ± 3
323.25 K, 40000 kPa	739 ± 3
323.25 K, 50000 kPa	745 ± 3
323.25 K, 60000 kPa	751 ± 3
323.25 K, 70000 kPa	757 ± 3
323.25 K, 80000 kPa	762 ± 3
323.25 K, 90000 kPa	767 ± 3
333.12 K, 5000 kPa	705 ± 3
333.12 K, 10000 kPa	710 ± 3
333.12 K, 20000 kPa	718 ± 3
333.13 K, 100 kPa	700 ± 3
333.13 K, 1000 kPa	701 ± 3
333.13 K, 30000 kPa	726 ± 3
333.13 K, 80000 kPa	757 ± 3
333.13 K, 90000 kPa	762 ± 3
333.13 K, 100000 kPa	767 ± 3
333.14 K, 40000 kPa	733 ± 3
333.14 K, 50000 kPa	740 ± 3
333.14 K, 60000 kPa	746 ± 3
333.14 K, 70000 kPa	751 ± 3
343.01 K, 100 kPa	693 ± 3
343.01 K, 1000 kPa	694 ± 3
343.01 K, 10000 kPa	703 ± 3
343.01 K, 20000 kPa	712 ± 3
343.01 K, 30000 kPa	720 ± 3
343.01 K, 40000 kPa	727 ± 3
343.01 K, 50000 kPa	734 ± 3
343.01 K, 60000 kPa	740 ± 3
343.02 K, 5000 kPa	698 ± 3
343.02 K, 70000 kPa	746 ± 3
343.02 K, 80000 kPa	752 ± 3
343.02 K, 90000 kPa	757 ± 3
343.02 K, 100000 kPa	762 ± 3
352.87 K, 100 kPa	686 ± 3
352.87 K, 1000 kPa	687 ± 3
352.87 K, 5000 kPa	691 ± 3
352.88 K, 10000 kPa	696 ± 3
352.88 K, 20000 kPa	706 ± 3
352.88 K, 30000 kPa	714 ± 3
352.88 K, 40000 kPa	722 ± 3
352.88 K, 50000 kPa	729 ± 3
352.88 K, 60000 kPa	735 ± 3
352.89 K, 70000 kPa	741 ± 3
352.89 K, 80000 kPa	747 ± 3
352.89 K, 90000 kPa	753 ± 3
352.89 K, 100000 kPa	758 ± 3
362.69 K, 100 kPa	677 ± 3
362.69 K, 1000 kPa	678 ± 3
362.7 K, 5000 kPa	683 ± 3
362.7 K, 10000 kPa	689 ± 3
362.71 K, 20000 kPa	699 ± 3
362.71 K, 30000 kPa	708 ± 3
362.71 K, 40000 kPa	716 ± 3
362.71 K, 50000 kPa	723 ± 3
362.71 K, 60000 kPa	730 ± 3
362.72 K, 70000 kPa	736 ± 3
362.72 K, 80000 kPa	742 ± 3
362.72 K, 90000 kPa	747 ± 3
362.72 K, 100000 kPa	753 ± 3

CCCCCCCCCCCC [dodecane]
Settings	mass density [kg/m3]
283.29 K, 100 kPa	756 ± 3
283.29 K, 1000 kPa	757 ± 3
283.29 K, 3000 kPa	758 ± 3
283.3 K, 5000 kPa	760 ± 3
283.3 K, 10000 kPa	763 ± 3
283.3 K, 30000 kPa	775 ± 3
283.3 K, 40000 kPa	780 ± 3
283.3 K, 50000 kPa	785 ± 3
283.3 K, 60000 kPa	790 ± 3
283.31 K, 20000 kPa	769 ± 3
283.31 K, 70000 kPa	795 ± 3
283.32 K, 80000 kPa	799 ± 3
283.32 K, 90000 kPa	803 ± 3
293.17 K, 100 kPa	749 ± 3
293.18 K, 1000 kPa	750 ± 3
293.19 K, 5000 kPa	753 ± 3
293.19 K, 10000 kPa	756 ± 3
293.19 K, 20000 kPa	763 ± 3
293.19 K, 30000 kPa	769 ± 3
293.19 K, 40000 kPa	774 ± 3
293.19 K, 50000 kPa	780 ± 3
293.19 K, 70000 kPa	789 ± 3
293.19 K, 80000 kPa	794 ± 3
293.19 K, 90000 kPa	798 ± 3
293.19 K, 100000 kPa	802 ± 3
293.2 K, 60000 kPa	785 ± 3
303.04 K, 30000 kPa	762 ± 3
303.04 K, 100000 kPa	797 ± 3
303.05 K, 100 kPa	742 ± 3
303.05 K, 1000 kPa	743 ± 3
303.05 K, 5000 kPa	746 ± 3
303.05 K, 20000 kPa	756 ± 3
303.05 K, 50000 kPa	774 ± 3
303.05 K, 60000 kPa	779 ± 3
303.05 K, 70000 kPa	784 ± 3
303.05 K, 80000 kPa	789 ± 3
303.05 K, 90000 kPa	793 ± 3
303.06 K, 10000 kPa	749 ± 3
303.06 K, 40000 kPa	768 ± 3
312.89 K, 100 kPa	736 ± 3
312.89 K, 1000 kPa	737 ± 3
312.9 K, 5000 kPa	740 ± 3
312.9 K, 10000 kPa	744 ± 3
312.9 K, 20000 kPa	751 ± 3
312.9 K, 30000 kPa	757 ± 3
312.9 K, 40000 kPa	763 ± 3
312.9 K, 50000 kPa	769 ± 3
312.9 K, 60000 kPa	774 ± 3
312.9 K, 70000 kPa	780 ± 3
312.9 K, 80000 kPa	784 ± 3
312.9 K, 90000 kPa	789 ± 3
312.9 K, 100000 kPa	793 ± 3
322.83 K, 100 kPa	727 ± 3
322.83 K, 1000 kPa	728 ± 3
322.83 K, 5000 kPa	732 ± 3
322.83 K, 10000 kPa	736 ± 3
322.83 K, 20000 kPa	743 ± 3
322.83 K, 30000 kPa	750 ± 3
322.83 K, 40000 kPa	756 ± 3
322.83 K, 50000 kPa	762 ± 3
322.83 K, 60000 kPa	768 ± 3
322.83 K, 70000 kPa	773 ± 3
322.83 K, 80000 kPa	778 ± 3
322.83 K, 90000 kPa	783 ± 3
322.83 K, 100000 kPa	787 ± 3
332.74 K, 100 kPa	720 ± 3
332.74 K, 1000 kPa	721 ± 3
332.74 K, 5000 kPa	725 ± 3
332.74 K, 10000 kPa	729 ± 3
332.74 K, 20000 kPa	737 ± 3
332.74 K, 30000 kPa	744 ± 3
332.74 K, 40000 kPa	750 ± 3
332.74 K, 50000 kPa	757 ± 3
332.74 K, 60000 kPa	762 ± 3
332.74 K, 70000 kPa	768 ± 3
332.74 K, 80000 kPa	773 ± 3
332.74 K, 90000 kPa	778 ± 3
332.75 K, 100000 kPa	782 ± 3
342.67 K, 100 kPa	713 ± 3
342.67 K, 1000 kPa	714 ± 3
342.67 K, 5000 kPa	718 ± 3
342.67 K, 10000 kPa	722 ± 3
342.67 K, 20000 kPa	731 ± 3
342.67 K, 30000 kPa	738 ± 3
342.67 K, 40000 kPa	745 ± 3
342.67 K, 50000 kPa	751 ± 3
342.67 K, 60000 kPa	757 ± 3
342.67 K, 69990 kPa	763 ± 3
342.67 K, 80000 kPa	768 ± 3
342.67 K, 90000 kPa	773 ± 3
342.67 K, 100000 kPa	778 ± 3
352.58 K, 100 kPa	707 ± 3
352.58 K, 1000 kPa	708 ± 3
352.58 K, 5000 kPa	712 ± 3
352.58 K, 10000 kPa	716 ± 3
352.58 K, 20000 kPa	725 ± 3
352.58 K, 30000 kPa	733 ± 3
352.58 K, 40000 kPa	740 ± 3
352.58 K, 50000 kPa	747 ± 3
352.58 K, 60000 kPa	753 ± 3
352.58 K, 70000 kPa	759 ± 3
352.58 K, 80000 kPa	764 ± 3
352.58 K, 90000 kPa	769 ± 3
352.58 K, 100000 kPa	774 ± 3
362.48 K, 5000 kPa	704 ± 3
362.48 K, 10000 kPa	709 ± 3
362.48 K, 20000 kPa	718 ± 3
362.48 K, 30000 kPa	726 ± 3
362.48 K, 50000 kPa	741 ± 3
362.48 K, 80000 kPa	759 ± 3
362.48 K, 90000 kPa	764 ± 3
362.49 K, 100 kPa	699 ± 3
362.49 K, 1000 kPa	700 ± 3
362.49 K, 40000 kPa	734 ± 3
362.49 K, 60000 kPa	747 ± 3
362.49 K, 70000 kPa	753 ± 3
362.49 K, 100000 kPa	769 ± 3
